{
  "source": "PubChem BioAssay AID2060903",
  "about": "(Molecular Pharmacology Branch, DTP, NCI, 2025)",
  "tested_on": "377384-186-R-J1-PDC complex spheroid viability",
  "test": "Anticancer human tumor 377384-186-R-J1-PDC patient-derived pancreatic carcinoma cell line growth inhibition [RAS]",
  "conditions": "for viability, T/C: stronger effect = lower value",
  "description": "RAS pathway inhibitors in Combinations in Complex Spheroids\nA high-throughput screen of multi-cell type tumor spheroids was designed to identify active combinations of RAS pathway inhibitors and targeted small molecules. Complex spheroids include a stromal component modeled by human endothelial cells (HUVEC) and fibroblasts modeled by human mesenchymal stem cells (MSCs). The concentration ranges selected for each drug and investigational agent were based upon clinically achievable concentrations if the clinical Cmax of the agent was known.\nCompounds. The drugs and investigational agents: abemaciclib (NSC768073), cobimetinib (NSC768068), divarasib (GDC6063, NSC841802), docetaxel (NSC628503), GDC-1971 (RLY-1971, NSC841576), gemcitabine (NSC613327), inavolisib (NSC800729), ipatasertib (NSC767898), KB-0742 (NSC834161), MRTX-1133 (NSC836407), osimertinib (NSC779217), RMC-4630 (NSC839698), RMC-6236 (NSC851965), RMC-6291 (NSC852671), Ro-3306 (NSC812927), sapanisertib (NSC764658), SN-38 (NSC673596), staurosporine (NSC755774), SY5609 (NSC837396), and tovorafenib (DAY101, NSC766906), were obtained from the National Cancer Institute (NCI) Developmental Therapeutics Program Chemical Repository. The FDA-approved anticancer drug set is available from the NCI Developmental Therapeutics Program. […] The stock solutions were prepared in dimethyl sulfoxide (DMSO, Sigma-Aldrich, St. Louis, MO, cat. D2650) at 800-fold the tested concentration and stored at -70 degrees C prior to their use. All drugs and investigational agents were tested over a range starting from a high concentration at or near the clinical Cmax and decreasing in half-log increments. If the clinical Cmax for an agent had not been determined, the highest concentration tested was 10 microM.\nCell Culture. All cells were maintained in an incubator at 37 degrees C and 5% CO2 with 95% humidity. The PDC lines were cultured according to standard operating procedures established by the NCI PDMR. All PDCs were thawed and cultured in Matrigel-coated flasks prepared with a working solution of 1X Ham's F-12 nutrient mix, without supplementation (Invitrogen, Waltham, MA, cat. 11765054), 100 U/mL penicillin-streptomycin (Invitrogen, cat. 15140122), and 2.5% Matrigel (Corning Inc., Corning, NY, cat. 354248) for the first three passages. The 362531-283-R-J2-PDC and 782815-120-R-J1-PDC lines were cultured in 6C/Colon 1B media, which includes advanced DMEM/F-12 (Thermo Fisher Scientific, cat. 12634028), 10 mM HEPES (Thermo Fisher Scientific, cat. 15630080), 1X GlutaMAX supplement (Thermo Fisher Scientific, cat. 35050061), 0.1 mg/mL primocin (InvivoGen, San Diego, CA, cat. ant-pm-2), 10% defined fetal bovine serum, heat inactivated (HyClone Laboratories Inc., Logan, UT, cat. SH30070.03HI), 50% L-WRN conditioned media (ATCC, cat. CRL-3276), 1.25 mM N-Acetyl-L-cysteine (Sigma-Aldrich, cat. A9165), 10 mM nicotinamide (Sigma-Aldrich, cat. N0636), 1X B-27 supplement (Thermo Fisher Scientific, cat. 17504044), 1X N-2 supplement (Thermo Fisher Scientific, cat. 17502048), 50 ng/mL human EGF (Thermo Fisher Scientific, cat. PHG0311), and 10 microM Y-27632 dihydrochloride (Tocris Bioscience, cat. 1254). The K12877-001-R-J1-PDC line was cultured in 6I media, which includes all 6C/Colon 1B media plus 10 ng/mL human FGF-10 (PeproTech, cat. 100-26), 1 ng/mL human FGF-2 (PeproTech, cat. 100-18B), 1 µM prostaglandin E2 (Tocris Bioscience, cat. 2296), […] hydrocortisone (Sigma-Aldrich, cat. H4001), and […] bovine insulin (Sigma-Aldrich, cat. I6634). The K86415-001-R-J1-PDC line was cultured in 6D media, which includes all 6C/Colon 1B media components minus the L-WRN conditioned media. The 485176-168-R4-J1-PDC was cultured in PANC media, which includes all 6C/Colon 1B media plus 100 ng/mL human FGF-10 (PeproTech, cat. 100-26), 500 nM SB-431542 (Selleckchem, cat. S1067), and 10 nM gastrin (Tocris Bioscience, cat. 3006). […]",
  "note": "Where “and” joins values, the source holds several entries; their conditions need not be identical. Identical values can stand only once.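 Further: spheroids exposed to compounds for seven days before readout.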",
  "data": [
    {"smiles": "CC(=O)OC12COC1CC(O)C1(C)C(=O)C(O)C3=C(C)C(OC(=O)C(O)C(NC(=O)OC(C)(C)C)c4ccccc4)CC(O)(C(OC(=O)c4ccccc4)C21)C3(C)C", "note": "(stereo unspecified)", "values": [
      {"measurement": "viability, T/C", "setting": "compound 0.0316 µM", "result": "9.48% [middle of 4 runs]"},
      {"measurement": "viability, T/C", "setting": "compound 0.1 µM", "result": "12% and 10.2% (2×) and 9.32%"},
      {"measurement": "viability, T/C", "setting": "compound 0.316 µM", "result": "11.3% [middle of 4 runs]"},
      {"measurement": "viability, T/C", "setting": "compound 1 µM", "result": "12.8% [middle of 4 runs]"},
      {"measurement": "viability, T/C", "setting": "compound 3.16 µM", "result": "14.2% [middle of 4 runs]"},
      {"measurement": "viability, T/C", "setting": "compound 10 µM", "result": "13.2% [middle of 4 runs]"},
      {"measurement": "IC50", "setting": "curve of compound", "result": "< 31.6", "unit": "nM"}
    ]},
    {"smiles": "CC(C)NCC(C(=O)N1CCN(c2ncnc3c2C(C)CC3O)CC1)c1ccc(Cl)cc1", "note": "(stereo unspecified)", "values": [
      {"measurement": "viability, T/C", "setting": "compound 0.1 µM", "result": "92% [middle of 4 runs]"},
      {"measurement": "viability, T/C", "setting": "compound 0.316 µM", "result": "75.2% [middle of 4 runs]"},
      {"measurement": "viability, T/C", "setting": "compound 1 µM", "result": "63.2% [middle of 4 runs]"},
      {"measurement": "viability, T/C", "setting": "compound 3.16 µM", "result": "51.9% [middle of 4 runs]"},
      {"measurement": "viability, T/C", "setting": "compound 10 µM", "result": "36.2% [middle of 4 runs]"},
      {"measurement": "IC50", "setting": "curve of compound", "result": "2.58 µM [middle of 4 runs]"}
    ]},
    {"smiles": "NC1c2ccccc2OC12CCN(c1cnc3c(N4CCCc5ncccc54)n[nH]c3n1)CC2", "note": "(stereo unspecified)", "values": [
      {"measurement": "viability, T/C", "setting": "compound 0.1 µM", "result": "83.4% [middle of 4 runs]"},
      {"measurement": "viability, T/C", "setting": "compound 0.316 µM", "result": "80.6% [middle of 4 runs]"},
      {"measurement": "viability, T/C", "setting": "compound 1 µM", "result": "73% [middle of 4 runs]"},
      {"measurement": "viability, T/C", "setting": "compound 3.16 µM", "result": "76.8% [middle of 4 runs]"},
      {"measurement": "viability, T/C", "setting": "compound 10 µM", "result": "70% [middle of 4 runs]"},
      {"measurement": "IC50", "setting": "curve of compound", "result": "> 10000", "unit": "nM"}
    ]},
    {"smiles": "C=CC(=O)Nc1cc(Nc2nccc(-c3cn(C)c4ccccc34)n2)c(OC)cc1N(C)CCN(C)C", "note": "+ C#Cc1c(F)ccc2cc(O)cc(-c3ncc4c(N5CC6CCC(C5)N6)nc(OCC56CCCN5CC(F)C6)nc4c3F)c12", "values": [
      {"measurement": "IC50", "setting": "curve of first compound, second compound 0.0316 µM", "result": "< 3.16", "unit": "nM"},
      {"measurement": "IC50", "setting": "curve of first compound, second compound 0.1 µM", "result": "< 3.16", "unit": "nM"},
      {"measurement": "IC50", "setting": "curve of first compound, second compound 0.316 µM", "result": "< 3.16", "unit": "nM"},
      {"measurement": "IC50", "setting": "curve of first compound, second compound 1 µM", "result": "< 3.16", "unit": "nM"},
      {"measurement": "IC50", "setting": "curve of first compound, second compound 3.16 µM", "result": "< 3.16", "unit": "nM"},
      {"measurement": "IC50", "setting": "curve of first compound, second compound 10 µM", "result": "< 3.16", "unit": "nM"},
      {"measurement": "viability, T/C", "setting": "second compound 0.0316 µM, first compound 0.00316 µM", "result": 23.5, "unit": "%"},
      {"measurement": "viability, T/C", "setting": "second compound 0.0316 µM, first compound 0.01 µM", "result": 20.6, "unit": "%"},
      {"measurement": "viability, T/C", "setting": "second compound 0.0316 µM, first compound 0.0316 µM", "result": 15.2, "unit": "%"},
      {"measurement": "viability, T/C", "setting": "second compound 0.0316 µM, first compound 0.1 µM", "result": 11.2, "unit": "%"},
      {"measurement": "viability, T/C", "setting": "second compound 0.0316 µM, first compound 0.316 µM", "result": 3.98, "unit": "%"},
      {"measurement": "viability, T/C", "setting": "second compound 0.0316 µM, first compound 1 µM", "result": 2.32, "unit": "%"},
      {"measurement": "viability, T/C", "setting": "second compound 0.1 µM, first compound 0.00316 µM", "result": 11.5, "unit": "%"},
      {"measurement": "viability, T/C", "setting": "second compound 0.1 µM, first compound 0.01 µM", "result": 8.96, "unit": "%"},
      {"measurement": "viability, T/C", "setting": "second compound 0.1 µM, first compound 0.0316 µM", "result": 5.18, "unit": "%"},
      {"measurement": "viability, T/C", "setting": "second compound 0.1 µM, first compound 0.1 µM", "result": 3.75, "unit": "%"},
      {"measurement": "viability, T/C", "setting": "second compound 0.1 µM, first compound 0.316 µM", "result": 2.22, "unit": "%"},
      {"measurement": "viability, T/C", "setting": "second compound 0.1 µM, first compound 1 µM", "result": 2.24, "unit": "%"},
      {"measurement": "viability, T/C", "setting": "second compound 0.316 µM, first compound 0.00316 µM", "result": 8.47, "unit": "%"},
      {"measurement": "viability, T/C", "setting": "second compound 0.316 µM, first compound 0.01 µM", "result": 5.04, "unit": "%"},
      {"measurement": "viability, T/C", "setting": "second compound 0.316 µM, first compound 0.0316 µM", "result": 3.96, "unit": "%"},
      {"measurement": "viability, T/C", "setting": "second compound 0.316 µM, first compound 0.1 µM", "result": 2.43, "unit": "%"},
      {"measurement": "viability, T/C", "setting": "second compound 0.316 µM, first compound 0.316 µM", "result": 1.28, "unit": "%"},
      {"measurement": "viability, T/C", "setting": "second compound 0.316 µM, first compound 1 µM", "result": 1.33, "unit": "%"},
      {"measurement": "viability, T/C", "setting": "second compound 1 µM, first compound 0.00316 µM", "result": 3.67, "unit": "%"},
      {"measurement": "viability, T/C", "setting": "second compound 1 µM, first compound 0.01 µM", "result": 2.76, "unit": "%"},
      {"measurement": "viability, T/C", "setting": "second compound 1 µM, first compound 0.0316 µM", "result": 2.37, "unit": "%"},
      {"measurement": "viability, T/C", "setting": "second compound 1 µM, first compound 0.1 µM", "result": 1.47, "unit": "%"},
      {"measurement": "viability, T/C", "setting": "second compound 1 µM, first compound 0.316 µM", "result": 1.51, "unit": "%"},
      {"measurement": "viability, T/C", "setting": "second compound 1 µM, first compound 1 µM", "result": 1.43, "unit": "%"},
      {"measurement": "viability, T/C", "setting": "second compound 3.16 µM, first compound 0.00316 µM", "result": 1.79, "unit": "%"},
      {"measurement": "viability, T/C", "setting": "second compound 3.16 µM, first compound 0.01 µM", "result": 1.63, "unit": "%"},
      {"measurement": "viability, T/C", "setting": "second compound 3.16 µM, first compound 0.0316 µM", "result": 1.82, "unit": "%"},
      {"measurement": "viability, T/C", "setting": "second compound 3.16 µM, first compound 0.1 µM", "result": 1.41, "unit": "%"},
      {"measurement": "viability, T/C", "setting": "second compound 3.16 µM, first compound 0.316 µM", "result": 1.37, "unit": "%"},
      {"measurement": "viability, T/C", "setting": "second compound 3.16 µM, first compound 1 µM", "result": 1.25, "unit": "%"},
      {"measurement": "viability, T/C", "setting": "second compound 10 µM, first compound 0.00316 µM", "result": 1.63, "unit": "%"},
      {"measurement": "viability, T/C", "setting": "second compound 10 µM, first compound 0.01 µM", "result": 1.14, "unit": "%"},
      {"measurement": "viability, T/C", "setting": "second compound 10 µM, first compound 0.0316 µM", "result": 1.21, "unit": "%"},
      {"measurement": "viability, T/C", "setting": "second compound 10 µM, first compound 0.1 µM", "result": 0.66, "unit": "%"},
      {"measurement": "viability, T/C", "setting": "second compound 10 µM, first compound 0.316 µM", "result": 1.89, "unit": "%"},
      {"measurement": "viability, T/C", "setting": "second compound 10 µM, first compound 1 µM", "result": 0.82, "unit": "%"}
    ]}
  ]
}
